Data reported in patent EP0242417B1, “Morphinane-skeletoned hydrazone derivatives, process for preparing them, pharmaceutical composition and use” (ALKALOIDA VEGYéSZETI GYáR, priority 1986, dated 1987).

Assays:
[1] = Hot plate test (analgetic activity); assay type: in vivo; settings: sc
[2] = Tail Flick test (analgetic activity); assay type: in vivo; settings: sc
opiate receptors = assay: Competition for tritiated Naloxon specific binding in rat brain membrane preparates; settings: tritiated Naloxon bond (1 nanomole) taken as 100 %
Description: The effect of the 10⁻⁷ and 10⁻⁵ M concentration of the compounds was examined to tritiated Naloxon bond in rat brain membrane preparates. […]
If the inhibition is high, i.e. the value of the specific bond of the labelled Naloxon is low, the compounds bind to the opiate receptors with high affinity.
A comparative data the tritiated Naloxon bond (concentration: 1 nanomole) was taken as 100 % (without excipients).
The membrane preparate was prepared according to the following article: G.W. Pasternak, H.A. Wilson, S.H. Snyder: Molecular Pharmacol. 11 340-51 (1975).
The specific radioactivity of the labelled Naloxon was 72.4 Ci/mmole [G. Töth, M. Kramer, F. Sirokmán, A. Borsodi, A. Rónai: J. Label. Comp. Radiopharm. 19 1021 (1976)].

[3] = Sensitivity to light of the isolated product
[4] = compared with naloxone; cited from earlier work
[5] = compound concentration 10⁻⁵ mol
[6] = compound concentration 10⁻⁷ mol

Structure (SMILES) | Hot plate test ED₅₀ [1] [mg/kg.sc] | Tail Flick ED₅₀ [2] [mg/kg.sc.] | residual tritiated specific bonds of Naloxon (opiate receptors; [5]) [%] | residual tritiated specific bonds of Naloxon (opiate receptors; [6]) [%] | sensitivity to light [3] | membrane affinity [4]
CN1CC[C@]23c4c5ccc(O)c4O[C@H]2[C@@H](O)C=C[C@H]3[C@H]1C5 [Morphine, reference compound] | 3.6 | 5.0 |  |  |  | 
CN1CC[C@]23c4c5ccc(O)c4O[C@H]2C(=NNC(N)=S)CC[C@@]3(O)[C@H]1C5 [Oxymorphone thiosemicarbazone, 14-OH dihydromorphine thiosemicarbazone] |  |  | 0 | 37±9 |  | 
CN1CC[C@]23c4c5ccc(O)c4O[C@H]2C(=NNC(N)=O)CC[C@H]3[C@H]1C5 [Dihydromorphinone semicarbazone] | 0.085 | 0.13 | 4±6 | 69±13 |  | 
COc1ccc2c3c1O[C@H]1C(=NNC(N)=O)CC[C@@]4(O)[C@@H](C2)N(C)CC[C@]314 [Oxycodone semicarbazone, 14-OH-dihydrocodeinonesemicarbazone] | 0.58 | 0.45 |  |  |  | 
COc1ccc2c3c1O[C@H]1C(=NN)C=C[C@@]4(O)[C@@H](C2)N(C)CC[C@]314 [Oxycodeinone hydrazone, 14-OH-codeinone hydrazone] |  |  | 13±7 | 92±25 |  | 
COc1ccc2c3c1O[C@H]1C(=NNc4ccccc4)CC[C@@]4(O)[C@@H](C2)N(C)CC[C@]314 [Oxycodone phenylhydrazone, 14-OH-dihydrocodeinone phenylhydrazone] | 0.8 | 1.2 |  |  |  | 
COc1ccc2c3c1O[C@H]1C(=NNc4ccccc4)CC[C@H]4[C@@H](C2)N(C)CC[C@]314 [Dihydrocodeinone phenylhydrazone] | 2.4 | 2.3 | 5±1 | 75±9 |  | 
COc1ccc2c3c1O[C@H]1C(=NNC(N)=O)CC[C@H]4[C@@H](C2)N(C)CC[C@]314 [Dihydrocodeinone semicarbazone] | 0.38 | 0.35 | 9±7 | 43±4 |  | 
COc1ccc2c3c1O[C@H]1C(=NNC(N)=S)CC[C@H]4[C@@H](C2)N(C)CC[C@]314 [Dihydrocodeinone thiosemicarbazone] | 1.7 | 0.6 |  |  |  | 
CN1CC[C@]23c4c5ccc(O)c4O[C@H]2C(=NNc2ccc([N+](=O)[O-])cc2[N+](=O)[O-])CC[C@H]3[C@H]1C5 [Dihydromorphinone dinitrophenylhydrazone, Dihydromorphinone-2,4-dinitrophenyl hydrazone] | 0.27 | 0.18 | 0.5±0.7 | 17±2 |  | 
COc1ccc2c3c1O[C@H]1C(=NNc4ccccc4)C=C[C@@]4(O)[C@@H](C2)N(C)CC[C@]314 [14-OH-codeinone phenylhydrazone] |  |  |  |  | sensitive to light | 
C=CCN1CCC23c4c5ccc(O)c4OC2C(=NNc2ccccc2)CCC3(O)C1C5 (stereo not shown) [naloxone phenylhydrazone] |  |  |  |  |  | much weaker membrane affinity than naloxone
CN1CC[C@]23c4c5ccc(O)c4O[C@H]2C(=NNC(N)=O)CC[C@@]3(O)[C@H]1C5 [Oxymorphone semicarbazone, 14-OH-dihydromarphinone semicarbazone] | 0.9 | 0.9 |  |  |  | 
CN1CC[C@]23c4c5ccc(O)c4O[C@H]2C(=NNc2ccccc2)CC[C@H]3[C@H]1C5 [Dihydromorphinone phenylhydrazone] |  |  | 10±14 | 4±5 |  | 
CN1CC[C@]23c4c5ccc(O)c4O[C@H]2C(=NNc2ccc([N+](=O)[O-])cc2[N+](=O)[O-])CC[C@@]3(O)[C@H]1C5 [Oxymorphone dinitrophenylhydrazone, 14-OH-dihydromorphinone-2,4-dinitrophenyl hydrazone] | 0.37 | 0.27 | 1±0.3 | 33±1 |  | 
CN1CC[C@]23c4c5ccc(O)c4O[C@H]2C(=NNC(N)=S)CC[C@H]3[C@H]1C5 [Dihydromorphinone thiosemicarbazone] |  |  | 19±4 | 16±5 |  | 
